Counter-ions that a name gives are not always drawn. Like-named read-outs stand apart in the source and are kept apart here.

Assay [1] deals with T1, human NaPi-IIb (Homo sapiens, UniProt O95436).
T1 construct: expressed in transfected cells
T1 sequence (O95436 1-690): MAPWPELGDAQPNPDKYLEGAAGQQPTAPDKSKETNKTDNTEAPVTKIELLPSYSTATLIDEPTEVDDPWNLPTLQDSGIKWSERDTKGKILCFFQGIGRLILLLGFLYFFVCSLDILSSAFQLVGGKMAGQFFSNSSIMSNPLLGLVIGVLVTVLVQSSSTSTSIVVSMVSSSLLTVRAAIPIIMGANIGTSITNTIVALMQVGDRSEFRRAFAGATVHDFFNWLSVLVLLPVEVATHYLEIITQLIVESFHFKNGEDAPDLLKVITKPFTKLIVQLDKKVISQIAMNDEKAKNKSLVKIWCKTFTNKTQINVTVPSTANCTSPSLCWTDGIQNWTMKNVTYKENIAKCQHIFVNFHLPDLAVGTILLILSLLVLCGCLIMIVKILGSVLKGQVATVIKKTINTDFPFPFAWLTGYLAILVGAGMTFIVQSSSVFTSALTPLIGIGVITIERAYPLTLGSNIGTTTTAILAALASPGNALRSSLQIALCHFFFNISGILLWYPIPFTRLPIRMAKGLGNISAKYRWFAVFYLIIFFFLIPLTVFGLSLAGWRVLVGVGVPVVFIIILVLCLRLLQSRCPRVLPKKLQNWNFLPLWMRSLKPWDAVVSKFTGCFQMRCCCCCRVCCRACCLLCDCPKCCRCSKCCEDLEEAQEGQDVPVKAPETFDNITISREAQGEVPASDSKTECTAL
Nature of the assay: Inhibitory effect on 33PO4 uptake into human NaPi-IIb-expressing CHO cells. The format is cell-based. Put shortly:
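Stable human NaPi-IIb CHO line (G418-selected), plated and cultured overnight; ³³PO4 added in buffer A and uptake run at room temperature. Cells washed with ice-cold buffer A, then uptake counted by liquid scintillation.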

For assay [2], the target named is T2, human PiT-1 (Homo sapiens, UniProt Q8WUM9).
T2 construct: expressed in transfected cells; host or cells: CHO cells
T2 sequence (Q8WUM9 1-679): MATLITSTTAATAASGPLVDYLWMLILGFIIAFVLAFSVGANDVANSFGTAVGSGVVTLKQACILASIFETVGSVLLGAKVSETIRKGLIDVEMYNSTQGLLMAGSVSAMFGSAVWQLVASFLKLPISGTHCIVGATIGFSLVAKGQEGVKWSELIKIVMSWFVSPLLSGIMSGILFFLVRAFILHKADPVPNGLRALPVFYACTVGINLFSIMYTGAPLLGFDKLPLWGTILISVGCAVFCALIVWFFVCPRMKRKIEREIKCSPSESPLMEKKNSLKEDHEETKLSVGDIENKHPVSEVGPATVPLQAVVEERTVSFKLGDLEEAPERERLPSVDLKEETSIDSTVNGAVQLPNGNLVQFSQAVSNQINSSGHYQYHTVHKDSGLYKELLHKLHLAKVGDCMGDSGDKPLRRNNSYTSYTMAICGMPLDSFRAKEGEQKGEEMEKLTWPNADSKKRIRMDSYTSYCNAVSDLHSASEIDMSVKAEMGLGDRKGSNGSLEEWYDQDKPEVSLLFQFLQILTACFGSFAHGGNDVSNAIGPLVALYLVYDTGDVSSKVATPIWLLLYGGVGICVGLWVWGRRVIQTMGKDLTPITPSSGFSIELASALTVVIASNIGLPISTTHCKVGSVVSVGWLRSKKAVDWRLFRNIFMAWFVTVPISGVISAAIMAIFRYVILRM
Nature of the assay: Inhibitory effect on 33PO4 uptake into human PiT-1-expressing CHO cells. The format is cell-based. The note with it: compound 0.24, 1.2, 6 or 30 μM, pH 6.5, read-out: IC50 against 33PO4 uptake into human PiT-1-expressing cells. As to the method:
Test Example 3: Inhibitory Effect on ^33PO4 Uptake into Human PiT-1-Expressing Cell
(§1) CHO cells were transfected with human PiT-1 expression plasmids or empty vectors to prepare human PiT-1-expressing cells and empty vector-expressing cells. The human PiT-1-expressing cells or the empty vector-expressing cells were inoculated to a 96-well plate and incubated overnight in a CO2 incubator. […] After a given time, a 1/20 volume of buffer A containing ^33PO4 was added thereto and reacted at room temperature. After washing with ice-cold buffer A, a liquid scintillator was added to each reaction mixture, and the amount of ^33PO4 uptake was measured using TopCount. The rate of inhibition was determined according to the following expression: Rate (%) of inhibition=(1−(Amount of ^33PO4 uptake in the compound-supplemented well containing the human PiT-1-expressing cells−Amount of ^33PO4 uptake in the compound-supplemented well containing the empty vector-expressing cells)/(Amount of ^33PO4 uptake in the DMSO-supplemented well containing the human PiT-1-expressing cells −Amount of ^33PO4 uptake in the DMSO-supplemented well containing the empty vector-expressing cells))×100

For assay [3], the target named is T3, human PiT-2 (Homo sapiens, UniProt Q08357).
T3 construct: expressed in transfected cells; host or cells: CHO cells
T3 sequence (Q08357 1-652): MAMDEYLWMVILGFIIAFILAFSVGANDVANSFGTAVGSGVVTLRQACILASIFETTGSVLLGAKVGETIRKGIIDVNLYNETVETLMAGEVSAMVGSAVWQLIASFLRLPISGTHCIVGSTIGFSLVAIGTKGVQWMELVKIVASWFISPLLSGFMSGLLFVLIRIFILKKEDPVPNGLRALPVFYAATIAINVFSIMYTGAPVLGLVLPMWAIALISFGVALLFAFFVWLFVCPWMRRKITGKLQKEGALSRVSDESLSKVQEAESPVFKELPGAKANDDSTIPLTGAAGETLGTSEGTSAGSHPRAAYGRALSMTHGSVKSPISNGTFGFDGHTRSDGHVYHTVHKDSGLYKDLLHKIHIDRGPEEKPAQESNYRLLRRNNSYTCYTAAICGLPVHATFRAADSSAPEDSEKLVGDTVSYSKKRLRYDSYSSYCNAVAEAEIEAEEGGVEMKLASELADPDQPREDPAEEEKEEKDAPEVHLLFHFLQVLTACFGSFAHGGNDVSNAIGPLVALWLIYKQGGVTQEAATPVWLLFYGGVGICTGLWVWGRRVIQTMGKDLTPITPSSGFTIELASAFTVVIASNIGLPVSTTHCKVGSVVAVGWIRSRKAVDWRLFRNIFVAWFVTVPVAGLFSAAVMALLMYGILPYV
Nature of the assay: Inhibitory effect on 33PO4 uptake into human PiT-2-expressing CHO cells. The format is cell-based. The note with it: pH 6.5, read-out: IC50 against 33PO4 uptake into human PiT-2-expressing cells. As to the method:
Test Example 4: Inhibitory Effect on ^33PO4 Uptake into Human PiT-2-Expressing Cell
as §1, with “PiT-2” for “PiT-1”, “PiT-2-expressing” for “PiT-1-expressing”

Assay [4] has as its system rat small-intestinal brush border membrane vesicles. The assay can be described thus: Inhibitory effect on 33PO4 uptake into rat small-intestinal brush border membrane vesicles (rapid filtration method). The format is biochemical. Conditions: 1 μM test compound; 33PO4 uptake into rat small-intestinal BBMVs, reacted for 60 seconds. The procedure:
Test Example 1: Inhibitory Effect on ^33PO4 Uptake into Rat Small-Intestinal Brush Border Membrane Vesicles Brush border membrane vesicles (BBMVs) were prepared using the upper region of the small intestine of each Wistar female rat (4-5 weeks old). The preparation of BBMVs was performed according to the method of Murer et al. (Murer […]. Sodium/proton antiport in brush-border-membrane vesicles isolated from rat small intestine and kidney. 1976. J Am Soc Nephrol. 1998 January; 9 (1): 143-50). The ^33PO4 transport activity of the small-intestinal BBMVs was determined by the rapid filtration method. […] Then, ice-cold buffer C (110 mM NaCl, 1 mM KH2PO4, and 10 mM HEPES (pH 7.5)) was added to each reaction mixture, which was immediately suction-filtered through a Millipore filter. The filter was washed with buffer C, and each sample was then dissolved in a liquid scintillator. The amount of ^33PO4 uptake into BBMVs was measured using a liquid scintillation counter.

Setting [5] is: read-out: IC50 against 33PO4 uptake into human NaPi-IIb-expressing cells.

Consider `CN(C)CC(C)(C)COc1ccc(CN2C(=O)C(C(=O)Nc3ccc(C(F)(F)F)cc3-c3cc(C(F)(F)F)ncn3)=C(O)C3(CCCC3)N2C)c(F)c1F` [Example 414, 7-(4-(3-(Dimethylamino)-2,2-dimethylpropoxy)-2,3-difluorobenzyl)-10-hydroxy-6-methyl-8-oxo-N-(4-(tri-fluoromethyl)-2-(6-(trifluoromethyl)pyrimidin-4-yl)phenyl)-6,7-diazaspiro [4.5]dec-9-ene-9-carboxamide], for which the IC50 – broadly, the concentration at which inhibition is half-maximal – in assay [1] (setting [5]) turned out to be 4.6 µM; in assay [2] it was 1.9 µM; in assay [3], 1.2 µM.
Regarding `COC[C@@H]1CCCN1CCOc1ccc(CN2C(=O)C(C(=O)Nc3ccc(C(F)(F)F)cc3-c3cc(C(F)(F)F)ncn3)=C(O)C3(CCC3)N2C)c(F)c1F` [Example 345, 6-[[2,3-Difluoro-4-[2-[(2S)-2-(methoxymethyl)pyrrolidin-1-yl]ethoxy]phenyl]methyl]-9-hydroxy-5-methyl-7-oxo-N-[4-(trifluoromethyl)-2-[6-(trifluoromethyl)pyrimidin-4-yl]phenyl]-5,6-diazaspiro[3.5]non-8-ene-8-carboxamide], the IC50 was 7.7 µM in assay [1] (read-out: IC50), 1.2 µM in assay [2] and 1.4 µM in assay [3].
Take `Cc1c(C#N)ncnc1-c1cc(C(F)(F)F)ccc1NC(=O)C1=C(O)[C@@]2(C)CCCN2N(Cc2ccc(OCCN3CCOCC3)c(F)c2F)C1=O` [Example 22, (4aR)-N-[2-(6-Cyano-5-methylpyrimidin-4-yl)-4-(trifluoromethyl)phenyl]-1-[[2,3-difluoro-4-(2-morpholin-4-ylethoxy)phenyl]methyl]-4-hydroxy-4a-methyl-2-oxo-6,7-dihydro-5H-pyrrolo [1,2-b]pyridazine-3-carboxamide]: the 50% inhibitory concentration (IC50) in assay [1] (read-out: IC50) was 7.9 µM; in assay [3] it was 3.2 µM.
Turning to `C[C@]12CCCN1N(Cc1cccc(F)c1F)C(=O)C(C(=O)Nc1ccc(C(F)(F)F)cc1-c1cnc(C#N)cn1)=C2O` [Example 57], the half-inhibitory concentration (IC50) in assay [1] (read-out: IC50) stood at 10.3 µM. Further, the “Rate of uptake inhibition (%) (1 μM)” value in assay [4] was 71%.
Take `CSc1ncc(-c2cc(C(F)(F)F)ccc2NC(=O)C2=C(O)[C@@]3(C)CCC(C)(C)N3N(Cc3cccc(F)c3F)C2=O)cn1` [Example 62]: in assay [1] (read-out: IC50), the IC50 stood at 6.4 µM. Besides, the “Rate of uptake inhibition (%) (1 μM)” value in assay [4] came out at 73%.
The corresponding values for `C[C@]12CCCN1N(Cc1cccc(F)c1)C(=O)C(C(=O)Nc1ccc(C(F)(F)F)cc1-c1cc(C(F)(F)F)ncn1)=C2O` [Example 34] are 7 µM and 99%.
For `CC1(C)CC[C@]2(C)C(O)=C(C(=O)Nc3ccc(C(F)(F)F)cc3-c3ccc(C(F)(F)F)nc3)C(=O)N(Cc3cccc(F)c3F)N12` [Example 61] the same measures were 5.6 µM and 71%.
As to `CN1N(Cc2ccc(OCC[N+]34CCN(CC3)CC4)c(F)c2F)C(=O)C(C(=O)Nc2ccc(C(F)(F)F)cc2-c2cc(C(F)(F)F)ncn2)=C(O)C12CCCC2` [Example 415, 1-(2-(2,3-Difluoro-4-((10-hydroxy-6-methyl-8-oxo-9-((4-(trifluoromethyl)-2-(6-(trifluoromethyl)pyrimidin-4-yl)phenyl)carbamoyl)-6,7-diazaspiro[4.5]dec-9-en-7-yl)methyl)phenoxy)ethyl)-1,4-diazabicyclo[2.2.2]octan-1-ium formate], in assay [1] (setting [5]), the IC50 amounted to 18.5 µM. Further, in assay [4], the “Rate of uptake inhibition (%) (1 μM)” value amounted to 21%.
For `CSc1ncc(-c2cc(C(F)(F)F)ccc2NC(=O)C2=C(O)[C@@]3(C)CCCN3N(Cc3cccc(F)c3F)C2=O)cn1` [Example 96], the IC50 in assay [1] (read-out: IC50) is 2.8 µM. For the same molecule, the “Rate of uptake inhibition (%) (1 μM)” value in assay [4] stood at 83%.
On to `C[C@]12CCCN1N(Cc1cccc(F)c1Br)C(=O)C(C(=O)Nc1ccc(Cl)cc1F)=C2O` [Example 38], for which, in assay [1] (read-out: IC50), the IC50 stood at 6.7 µM. For the same molecule, in assay [4], the “Rate of uptake inhibition (%) (1 μM)” value is reported as 90%.
Take `C[C@]12CCCN1N(Cc1cccc(F)c1)C(=O)C(C(=O)Nc1cc(F)c(Br)c(F)c1)=C2O` [Example 36]: the IC50 in assay [1] (read-out: IC50) worked out at 6.1 µM. Further, the “Rate of uptake inhibition (%) (1 μM)” value in assay [4] stood at 80%.
The corresponding values for `Cc1nc(NC(=O)C2=C(O)[C@@]3(C)CCCN3N(Cc3cccc(F)c3Br)C2=O)ccc1Br` [Example 39] are 8.5 µM and 90%.
With `C[C@]12CCCN1N(Cc1cccc(F)c1F)C(=O)C(C(=O)Nc1ccc(C(F)(F)F)cc1-c1cccc(F)c1C#N)=C2O` [Example 48], in assay [1] (read-out: IC50), the half-inhibitory concentration (IC50) was found to be 16.3 µM. In assay [4], the “Rate of uptake inhibition (%) (1 μM)” value came out at 87%.

The values are drawn from US9499553B2 (CHUGAI SEIYAKU KABUSHIKI KAISHA, priority 2013, dated 2016).
